Test results published in ChEMBL document CHEMBL1201862, “PubChem BioAssay data set” (2004).
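Method: 48-hour compound exposure of cells in 96-well plates, five concentrations, linear interpolation of endpoints. The concentration for 50% growth inhibition is given as GI50.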 Activity calls are given as the source filed them. Rule as the data show it: active = GI50 up to about 1.1 µM and inactive = higher.

How the values were obtained:
Experiment in all cases: NCI tumour cell line growth inhibition, 48 h
786-0 = tested on: 786-0
A498 = tested on: A498
A549 = tested on: A549
ACHN = tested on: ACHN
CAKI-1 = tested on: CAKI-1
CCRF-CEM = tested on: CCRF-CEM
COLO 205 = tested on: COLO 205
DLD-1 = tested on: DLD-1
DMS-273 = tested on: DMS-273
EKVX = tested on: EKVX
HCC 2998 = tested on: HCC 2998
HCT-15 = tested on: HCT-15
HL-60 = tested on: HL-60
HOP-62 = tested on: HOP-62
HT-29 = tested on: HT-29
IGROV-1 = tested on: IGROV-1
K562 = tested on: K562
KM-20L2 = tested on: KM-20L2
KM12 = tested on: KM12
LOX IMVI = tested on: LOX IMVI
LXFL 529 = tested on: LXFL 529
M14 = tested on: M14
M19-MEL = tested on: M19-MEL
MOLT-4 = tested on: MOLT-4
Malme-3M = tested on: Malme-3M
NCI-H226 = tested on: NCI-H226
NCI-H23 = tested on: NCI-H23
NCI-H460 = tested on: NCI-H460
NCI-H522 = tested on: NCI-H522
OVCAR-4 = tested on: OVCAR-4
OVCAR-8 = tested on: OVCAR-8
RPMI-8226 = tested on: RPMI-8226
RXF 393 = tested on: RXF 393
SF-295 = tested on: SF-295
SF-539 = tested on: SF-539
SK-MEL-2 = tested on: SK-MEL-2
SK-MEL-5 = tested on: SK-MEL-5
SN12C = tested on: SN12C
SNB-19 = tested on: SNB-19
SNB-75 = tested on: SNB-75
SR = tested on: SR
SW-620 = tested on: SW-620
TK-10 = tested on: TK-10
U-251 = tested on: U-251
UACC-257 = tested on: UACC-257
UACC-62 = tested on: UACC-62
UO-31 = tested on: UO-31
XF498 = tested on: XF498
DMS-114 = tested on: DMS-114
HCT-116 = tested on: HCT-116
HOP-92 = tested on: HOP-92
OVCAR-3 = tested on: OVCAR-3
OVCAR-5 = tested on: OVCAR-5
SF-268 = tested on: SF-268
SK-MEL-28 = tested on: SK-MEL-28
SNB-78 = tested on: SNB-78
SK-OV-3 = tested on: SK-OV-3

SMILES: COc1ccc(S(=O)(=O)N/N=C/CN2C(=O)c3ccccc3C2=O)cc1
- GI50 (786-0): > 100 µM (inactive)
- GI50 (A498): > 100 µM (inactive)
- GI50 (A549): > 100 µM (inactive)
- GI50 (ACHN): > 100 µM (inactive)
- GI50 (CAKI-1): > 100 µM (inactive)
- GI50 (CCRF-CEM): > 100 µM (inactive)
- GI50 (COLO 205): > 100 µM (inactive)
- GI50 (DLD-1): > 100 µM (inactive)
- GI50 (DMS-273): > 100 µM (inactive)
- GI50 (EKVX): > 100 µM (inactive)
- GI50 (HCC 2998): > 100 µM (inactive)
- GI50 (HCT-15): > 100 µM
- GI50 (HL-60): > 100 µM (inactive)
- GI50 (HOP-62): > 100 µM (inactive)
- GI50 (HT-29): > 100 µM (inactive)
- GI50 (IGROV-1): > 100 µM (inactive)
- GI50 (K562): > 100 µM (inactive)
- GI50 (KM-20L2): > 100 µM (inactive)
- GI50 (KM12): > 100 µM (inactive)
- GI50 (LOX IMVI): > 100 µM (inactive)
- GI50 (LXFL 529): > 100 µM (inactive)
- GI50 (M14): > 100 µM (inactive)
- GI50 (M19-MEL): > 100 µM (inactive)
- GI50 (MOLT-4): > 100 µM (inactive)
- GI50 (Malme-3M): > 100 µM (inactive)
- GI50 (NCI-H226): 47 µM (inactive)
- GI50 (NCI-H23): > 100 µM (inactive)
- GI50 (NCI-H460): > 100 µM (inactive)
- GI50 (NCI-H522): > 100 µM (inactive)
- GI50 (OVCAR-4): > 100 µM (inactive)
- GI50 (OVCAR-8): > 100 µM (inactive)
- GI50 (RPMI-8226): > 100 µM (inactive)
- GI50 (RXF 393): > 100 µM (inactive)
- GI50 (SF-295): > 100 µM (inactive)
- GI50 (SF-539): > 100 µM (inactive)
- GI50 (SK-MEL-2): > 100 µM (inactive)
- GI50 (SK-MEL-5): > 100 µM (inactive)
- GI50 (SN12C): > 100 µM (inactive)
- GI50 (SNB-19): > 100 µM (inactive)
- GI50 (SNB-75): > 100 µM (inactive)
- GI50 (SR): > 100 µM (inactive)
- GI50 (SW-620): > 100 µM (inactive)
- GI50 (TK-10): > 10 µM (inactive)
- GI50 (U-251): > 100 µM (inactive)
- GI50 (UACC-257): > 100 µM (inactive)
- GI50 (UACC-62): > 100 µM (inactive)
- GI50 (UO-31): > 10 µM (inactive)
- GI50 (XF498): > 100 µM (inactive)

SMILES: CC(Cn1c2c3ccccc3ccc2c2oc(=O)c3ccccc3c21)N(C)C (centres undefined)
- GI50 (786-0): > 100 µM (inactive)
- GI50 (A549): > 100 µM (inactive)
- GI50 (ACHN): > 100 µM (inactive)
- GI50 (CAKI-1): > 100 µM (inactive)
- GI50 (CCRF-CEM): > 100 µM (inactive)
- GI50 (COLO 205): > 100 µM (inactive)
- GI50 (DLD-1): > 100 µM (inactive)
- GI50 (DMS-114): > 100 µM (inactive)
- GI50 (EKVX): > 100 µM (inactive)
- GI50 (HCT-116): > 100 µM (inactive)
- GI50 (HCT-15): > 100 µM
- GI50 (HL-60): > 100 µM (inactive)
- GI50 (HOP-92): > 100 µM (inactive)
- GI50 (HT-29): > 100 µM (inactive)
- GI50 (IGROV-1): > 100 µM (inactive)
- GI50 (K562): > 100 µM (inactive)
- GI50 (KM-20L2): > 100 µM (inactive)
- GI50 (KM12): > 100 µM (inactive)
- GI50 (LOX IMVI): > 100 µM (inactive)
- GI50 (LXFL 529): > 100 µM (inactive)
- GI50 (M14): > 100 µM (inactive)
- GI50 (MOLT-4): > 100 µM (inactive)
- GI50 (Malme-3M): > 100 µM (inactive)
- GI50 (NCI-H23): > 100 µM (inactive)
- GI50 (NCI-H460): > 100 µM (inactive)
- GI50 (NCI-H522): > 100 µM (inactive)
- GI50 (OVCAR-3): > 100 µM (inactive)
- GI50 (OVCAR-4): > 100 µM (inactive)
- GI50 (OVCAR-5): > 100 µM (inactive)
- GI50 (OVCAR-8): > 100 µM (inactive)
- GI50 (RPMI-8226): > 100 µM (inactive)
- GI50 (SF-268): > 100 µM (inactive)
- GI50 (SF-295): > 100 µM (inactive)
- GI50 (SF-539): > 100 µM (inactive)
- GI50 (SK-MEL-28): > 100 µM (inactive)
- GI50 (SK-MEL-2): > 100 µM (inactive)
- GI50 (SNB-19): > 100 µM (inactive)
- GI50 (SNB-75): > 100 µM (inactive)
- GI50 (SNB-78): > 100 µM (inactive)
- GI50 (SR): > 100 µM (inactive)
- GI50 (SW-620): > 100 µM (inactive)
- GI50 (TK-10): > 100 µM (inactive)
- GI50 (U-251): > 100 µM (inactive)
- GI50 (UACC-257): > 100 µM (inactive)
- GI50 (UACC-62): > 100 µM (inactive)
- GI50 (UO-31): > 100 µM (inactive)
- GI50 (XF498): > 100 µM (inactive)

SMILES: Cc1ccc(Nc2nc(-c3ccc(-c4ccc([N+](=O)[O-])cc4)o3)cs2)cc1
- GI50 (786-0): 68.5 µM (inactive)
- GI50 (A549): 52.7 µM (inactive)
- GI50 (ACHN): 34 µM (inactive)
- GI50 (CAKI-1): > 100 µM (inactive)
- GI50 (COLO 205): 40 µM (inactive)
- GI50 (DLD-1): 41.4 µM (inactive)
- GI50 (DMS-273): 42.6 µM (inactive)
- GI50 (HCC 2998): 23.4 µM (inactive)
- GI50 (HCT-116): 67.1 µM (inactive)
- GI50 (HCT-15): 15.7 µM
- GI50 (HL-60): 58.7 µM (inactive)
- GI50 (HOP-62): > 100 µM (inactive)
- GI50 (HOP-92): 37.2 µM (inactive)
- GI50 (HT-29): 28.4 µM (inactive)
- GI50 (IGROV-1): 22.7 µM (inactive)
- GI50 (K562): 14.2 µM (inactive)
- GI50 (KM-20L2): 29.6 µM (inactive)
- GI50 (KM12): 52.8 µM (inactive)
- GI50 (LOX IMVI): 33.8 µM (inactive)
- GI50 (LXFL 529): 29.3 µM (inactive)
- GI50 (M14): > 100 µM (inactive)
- GI50 (M19-MEL): 51.2 µM (inactive)
- GI50 (MOLT-4): 4.54 µM (inactive)
- GI50 (Malme-3M): 65.2 µM (inactive)
- GI50 (NCI-H226): 48.3 µM (inactive)
- GI50 (NCI-H23): 25.6 µM (inactive)
- GI50 (NCI-H460): 44 µM (inactive)
- GI50 (OVCAR-3): > 100 µM (inactive)
- GI50 (OVCAR-4): 63.1 µM (inactive)
- GI50 (OVCAR-5): 59 µM (inactive)
- GI50 (OVCAR-8): 40.6 µM (inactive)
- GI50 (RPMI-8226): 12.6 µM (inactive)
- GI50 (SF-268): > 100 µM (inactive)
- GI50 (SF-295): 33.2 µM (inactive)
- GI50 (SF-539): 93.8 µM (inactive)
- GI50 (SK-MEL-28): 38 µM (inactive)
- GI50 (SK-MEL-2): > 100 µM (inactive)
- GI50 (SK-OV-3): > 100 µM (inactive)
- GI50 (SN12C): 73.6 µM (inactive)
- GI50 (SNB-19): > 100 µM (inactive)
- GI50 (SNB-75): 50.5 µM (inactive)
- GI50 (SNB-78): 66.5 µM (inactive)
- GI50 (SR): 11.4 µM (inactive)
- GI50 (SW-620): 95.3 µM (inactive)
- GI50 (TK-10): 25.4 µM (inactive)
- GI50 (U-251): 35 µM (inactive)
- GI50 (UACC-257): 21.5 µM (inactive)
- GI50 (UACC-62): 99.8 µM (inactive)
- GI50 (UO-31): 8.51 µM (inactive)
